Reference: publication PMC6272426, “LC-ESI-MS/MS Analysis and Pharmacokinetics of GP205, an Innovative Potent Macrocyclic Inhibitor of Hepatitis C Virus NS3/4A Protease in Rats” (Molecules, 2015)
Where two headings read alike, the source gives them in different places. Blank lines part the entries; values can stand above or below the molecule they belong to.

Experiments:
[1] = design: method as in PMID 15732092; settings: rhesus monkeys; cited from earlier work
[2] = Sprague-Dawley, rat
[3] = Sprague-Dawley, rat, in vivo, po
Experimental: (§1) The method developed above was applied to a pharmacokinetic study of GP205 to SD rats after single oral doses at 2.5, 5 and 10 mg/kg and an intravenous injection dose at 1 mg/kg.
(§2) Twenty four SD rats (12 males and 12 females), weighing 210 ± 8 g (mean ± SD) were fed with certified standard diet and tap water ad libitum. Temperature and humidity were regulated at 21–23 °C and 30%–60%, respectively. A light/dark cycle of 12 h on/12 h off was established. After 1 week of acclimatization, they were randomly divided into 4 groups (3 males and 3 females for each group). After fasted overnight, three groups of them received oral administration of GP205 at three dosages 2.5 mg/kg, 5 mg/kg, 10 mg/kg dissolved in mixed solvent (5% DMSO, 40% PEG-400, 55% physiological saline), respectively. The other group of them received an intravenous injection of GP205 at 1 mg/kg. […] Blood samples (100 μL) were collected into heparinized tubes before administration and at 0.083, 0.17, 0.33, 0.5, 1, 2, 3, 4, 6, 8, 12, 24, 36, 48 h after oral administration or before administration and at 0, 0.083, 0.17, 0.33, 0.5, 1, 2, 3, 4, 6, 8, 12, 24, 36 , 48 h after intravenous administration. The plasma was separated from heparinized blood by centrifugation at 3500 rpm for 10 min and stored at −80 °C prior to analysis.

in vivo [4] = settings: both, Sprague-Dawley, rat, iv, 1 mg/kg
Experimental: as §1, §2

[5] = target: NS3 enzyme, genotype 1b HCV (HCV NS3/4A protease) (Hepatitis C virus genotype 1b, UniProt Q9WMX2); experiment: biochemical
[6] = type: physicochemical; settings: Stock solution
Experimental: [table] Stock solutions of GP205 were prepared by dissolving an accurately weighed amount of reference standard in methanol to yield a final concentration of 1 mg/mL. The solutions were sonicated for 5 min to ensure complete dissolution. Then the solutions were allowed to equilibrate to room temperature and diluted to volume with methanol. Working standard solutions of GP205 in the concentration range of 20–50,000 ng/mL were prepared from individual aliquots of 1 mg/mL solution using methanol–water (95:5, v/v) as the diluent. The stock standard solution of IS was prepared by dissolving appropriate amount of paclitaxel in methanol at the concentration of 1 mg/mL. A 1 μg/mL IS working solution was obtained by diluting the stock solution of paclitaxel with methanol–water (95:5, v/v). All the solutions were stored at 4 °C and brought to room temperature before use. Calibration standards were prepared daily by spiking 5 μL of the appropriate standard solutions to 45 μL of the blank SD rat plasma. Plasma concentrations were 2, 5, 10, 50, 100, 200, 500, 2000 and 5000 ng/mL for GP205. QC samples, which were used in the validation and during the pharmacokinetics study, were prepared from different sources by independent dilution at three levels (5, 100, 4000 ng/mL) for GP205. QC samples were aliquoted into 1.5 mL non-sterile Eppendorf tubes and stored at −80 °C until analysis.

in vivo [7] = settings: Sprague-Dawley, rat
Experimental: as §1, §2

[8] = both, Sprague-Dawley, rat, in vivo, iv, 1 mg/kg
Experimental: as §1, §2

[9] = design: method as in PMID 24900304; settings: comparison value for MK-1220; cited from earlier work
[10] = 4 °C for 40 days, nominal 5 ng/mL
[11] = 4 °C for 40 days, nominal 100 ng/mL
[12] = 4 °C for 40 days, nominal 4000 ng/mL
[13] = 25 °C for 24 h, nominal 5 ng/mL
[14] = 25 °C for 24 h, nominal 100 ng/mL
[15] = 25 °C for 24 h, nominal 4000 ng/mL

NS3 enzyme, genotype 1b HCV (HCV NS3/4A protease), sequence (Q9WMX2 1027-1657): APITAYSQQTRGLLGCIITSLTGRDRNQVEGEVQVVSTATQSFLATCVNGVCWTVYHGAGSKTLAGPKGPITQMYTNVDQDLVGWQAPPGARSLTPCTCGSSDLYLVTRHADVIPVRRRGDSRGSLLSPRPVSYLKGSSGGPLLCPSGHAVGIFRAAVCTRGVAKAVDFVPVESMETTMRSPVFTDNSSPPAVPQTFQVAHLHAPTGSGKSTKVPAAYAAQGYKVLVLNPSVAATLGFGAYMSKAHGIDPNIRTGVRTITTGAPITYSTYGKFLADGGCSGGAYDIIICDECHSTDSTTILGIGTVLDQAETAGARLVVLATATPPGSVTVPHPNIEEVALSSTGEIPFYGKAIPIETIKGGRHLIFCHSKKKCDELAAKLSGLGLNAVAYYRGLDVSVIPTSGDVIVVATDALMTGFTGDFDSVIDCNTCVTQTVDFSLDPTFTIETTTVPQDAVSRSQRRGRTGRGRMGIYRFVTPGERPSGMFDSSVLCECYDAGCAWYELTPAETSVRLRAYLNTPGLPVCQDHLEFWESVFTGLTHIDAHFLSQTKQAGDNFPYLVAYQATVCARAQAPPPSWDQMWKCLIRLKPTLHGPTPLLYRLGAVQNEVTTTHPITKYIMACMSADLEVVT
NS3 enzyme, genotype 1b HCV (HCV NS3/4A protease), sequence (Q9WMX2 1658-1711): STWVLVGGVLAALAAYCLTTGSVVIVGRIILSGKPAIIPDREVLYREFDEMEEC

Structure (SMILES): COc1ccc2c(O[C@@H]3C[C@H]4C(=O)N[C@]5(C(=O)O)C[C@H]5/C=C\CCCCC[C@H](NC(=O)OC5CCCC5)C(=O)N4C3)cc(-c3csc(NC(C)C)n3)nc2c1 [BILN-2061]
Cardiotoxicity finding [1]: cardiotoxocity identified in rhesus monkeys

Structure (SMILES): C=C[C@@H]1C[C@]1(NC(=O)[C@@H]1C[C@@H]2CN1C(=O)[C@H](C1CCCCC1)NC(=O)[C@@H](NC(=O)OC(C)(C)C)COC/C=C/c1cc3c(nccc3cc1OC)O2)C(=O)NS(=O)(=O)C1CC1 [GP205, potassium tert-butyl N-[(3R,5S,8S,11S,15E)-8-cyclohexyl-5-{[(1R,2S)-1-[(cyclo-propanesulfonyl)carbamoyl]-2-ethenylcyclopropyl]carbamoyl}-18-methoxy-7,10-dioxo-2,13-dioxa-6,9,23-triazatetracyclo[15.6.2.13,6.020,24]hexacosa-1(23),15,17(25),18,20(24),21-hexaen-11-yl] carbamate monohydrate]
Accuracy ([2]; 5 ng/mL): −5.5% | Measured Conc. ([2]; 5 ng/mL): 4.73 ng/mL | Accuracy ([2]; 100 ng/mL): −5.1% | Measured Conc. ([2]; 100 ng/mL): 94.90 ng/mL | Accuracy ([2]; 4000 ng/mL): −1.9% | Measured Conc. ([2]; 4000 ng/mL): 3925.86 ng/mL | Accuracy ([2]; 4 h, 5 ng/mL): −3.3% | Measured Conc. ([2]; 4 h, 5 ng/mL): 4.84 ng/mL | Accuracy ([2]; 4 h, 100 ng/mL): −1.6% | Measured Conc. ([2]; 4 h, 100 ng/mL): 98.39 ng/mL | Accuracy ([2]; 4 h, 4000 ng/mL): −2.9% | Measured Conc. ([2]; 4 h, 4000 ng/mL): 3884.71 ng/mL | Accuracy ([2]; 24 h, 5 ng/mL): −4.2% | Measured Conc. ([2]; 24 h, 5 ng/mL): 4.79 ng/mL | Accuracy ([2]; 24 h, 100 ng/mL): −3.9% | Measured Conc. ([2]; 24 h, 100 ng/mL): 96.13 ng/mL | Accuracy ([2]; 24 h, 4000 ng/mL): −2.4% | Measured Conc. ([2]; 24 h, 4000 ng/mL): 3904.44 ng/mL | Accuracy ([2]; 40 days, 5 ng/mL): −7.7% | Measured Conc. ([2]; 40 days, 5 ng/mL): 4.61 ng/mL | Accuracy ([2]; 40 days, 100 ng/mL): −7.2% | Measured Conc. ([2]; 40 days, 100 ng/mL): 92.84 ng/mL | Accuracy ([2]; 40 days, 4000 ng/mL): −4.7% | Measured Conc. ([2]; 40 days, 4000 ng/mL): 3812.43 ng/mL | AUC relative to MK-1220 (fold higher) [3]: ~11 fold | Cmax relative to MK-1220 (fold higher) [3]: about 2 fold | Time of maximum plasma drug concentration ([3]; both): about 6 h | AUC (in vivo [4]): 66600 ng·h/mL | AUC(0-inf) (in vivo [4]): 75200 ng·h/mL | C0 (in vivo [4]): 9510 ± 442 ng/mL | MRT (in vivo [4]): 20.8 ± 3.41 h | clearance (in vivo [4]): 0.333 mL/min/kg | half-life (in vivo [4]): 16.3 ± 2.99 h | IC50 [5]: 4 nM | Accuracy [6, 10]: 2.8% | Measured Conc. [6, 10]: 5.14 ng/mL | Accuracy [6, 11]: 0.6% | Measured Conc. [6, 11]: 100.63 ng/mL | Accuracy [6, 12]: −0.2% | Measured Conc. [6, 12]: 3992.75 ng/mL | Accuracy [6, 13]: 1.8% | Measured Conc. [6, 13]: 5.09 ng/mL | Accuracy [6, 14]: 3.3% | Measured Conc. [6, 14]: 103.26 ng/mL | Accuracy [6, 15]: −0.3% | Measured Conc. [6, 15]: 3987.91 ng/mL | concentration at 1 h (in vivo [7]; po, 2.5 mg/kg): 716 ng/mL | bioavailability (in vivo [7]; both): 34% | AUC (in vivo [7]; both, po, 2.5 mg/kg): 64300 ng·h/mL | AUC(0-inf) (in vivo [7]; both, po, 2.5 mg/kg): 70100 ng·h/mL | Cmax (in vivo [7]; both, po, 2.5 mg/kg): 4260 ± 400 ng/mL | MRT (in vivo [7]; both, po, 2.5 mg/kg): 19.4 ± 3.22 h | Tmax (in vivo [7]; both, po, 2.5 mg/kg): 6.3 ± 0.8 h | half-life (in vivo [7]; both, po, 2.5 mg/kg, t1/2): 12.4 ± 1.51 h | AUC (in vivo [7]; both, po, 5 mg/kg): 122000 ng·h/mL | AUC(0-inf) (in vivo [7]; both, po, 5 mg/kg): 135000 ng·h/mL | Cmax (in vivo [7]; both, po, 5 mg/kg): 6780 ± 750 ng/mL | MRT (in vivo [7]; both, po, 5 mg/kg): 22.2 ± 2.18 h | Tmax (in vivo [7]; both, po, 5 mg/kg): 6.3 ± 1.5 h | half-life (in vivo [7]; both, po, 5 mg/kg, t1/2): 13.9 ± 1.48 h | AUC (in vivo [7]; both, po, 10 mg/kg): 176000 ng·h/mL | AUC(0-inf) (in vivo [7]; both, po, 10 mg/kg): 205000 ng·h/mL | Cmax (in vivo [7]; both, po, 10 mg/kg): 9410 ± 583 ng/mL | MRT (in vivo [7]; both, po, 10 mg/kg): 25.6 ± 3.48 h | Tmax (in vivo [7]; both, po, 10 mg/kg): 6.3 ± 0.8 h | half-life (in vivo [7]; both, po, 10 mg/kg, Elimination half time (t1/2)): 12.4 to 17.2 h | half-life (in vivo [7]; both, po, 10 mg/kg, t1/2): 17.2 ± 2.73 h | VD [8]: 0.31 ± 0.12 L

IC50 ([5]; NS3 enzyme, genotype 1b HCV, in vitro, read-out: IC50): 11 nM
Structure (SMILES): C=C[C@@H]1C[C@]1(NC(=O)[C@@H]1C[C@@H]2CN1C(=O)[C@H](C1CCCCC1)NC(=O)OCC(C)(C)CCCc1cc3c(nccc3cc1OC)O2)C(=O)NS(=O)(=O)C1CC1 [MK-1220]
t1/2 [9]: about 6 h

IC50 [5]: 95 nM
Structure (SMILES): CCC[C@H](NC(=O)[C@@H]1[C@H]2CCC[C@H]2CN1C(=O)[C@@H](NC(=O)[C@@H](NC(=O)c1cnccn1)C1CCCCC1)C(C)(C)C)C(=O)C(=O)NC1CC1 [telaprevir]
